Experimental data: patent US20200253979A1, “THERAPEUTIC METHODS RELATING TO HSP90 INHIBITORS” (AI Therapeutics, Inc., priority 2017, published 2020)

Legend:
H1975 cells = assay: 7-AAD / annexin V cell death staining; type: cell-based; conditions: 0.7 μM, 72 hours
Method: To verify the mechanism of the loss of cell viability, H1975 cells were treated with MPC-0767 (0.7 μM) for 72 hours. After this time, cells were stained with 7-amino-actinomycin D (7-AAD) and annexin V, markers of cell membrane integrity and of apoptosis, respectively.

[1] = test system: mutant EGFR on the cell surface of H1975 cells; assay: Cell surface EGFR by flow cytometry; type: cell-based; conditions: H1975, 1 μM, 24 hours
Method: (§1) FIG. 3A-B: MPC-0767 reduces cell surface EGFR expression in H1975 cells (A) and PC-9 cells (B). Cells were treated with MPC-0767 (1 μM) for 24 hours before being harvested and cell expression of EGFR determined by flow cytometry.
(§2) These findings confirm that MPC-0767 targets and degrades EGFR in lung cancer cell lines.

[2] = test system: mutant EGFR on the cell surface of PC-9 cells; assay: Cell surface EGFR by flow cytometry; type: cell-based; conditions: PC-9, 1 μM, 24 hours
Method: as §1, §2

[3] = test system: MOLM-13-R-PKC412 (midostaurin-resistant) cells; assay: CellTiter-Glo cell viability; type: cell-based, human
Text: In the clinic, tyrosine kinase inhibitors that target FLT3 initially show positive responses, but patients inevitably relapse due to the development of drug-resistance through various mechanisms, as discussed above.

[4] = test system: phospho-S6 in MV-4-11 cells; assay: Phospho-S6 by flow cytometry; type: cell-based; conditions: MV-4-11, 1 μM, 24 hours
Method: (§3) To determine whether MPC-0767 can promote the degradation of FLT3-ITD and abolish downstream signaling, MV-4-11 and MOLM-13 cells were treated with vehicle or MPC-0767 (1 μM) for 24 hours. Cells were harvested for flow cytometry to assess cell surface FLT3 protein abundance. In addition, the measurement of a key phosphorylation site of S6 (phospho-S6) was used as a marker for oncogenic FLT3-ITD signaling (Zimmerman et al., Blood. 2013 122(22): 3607-3615). Indeed, in both MV-4-11 and MOLM-13 cells treated with MPC-0767 there was a >65% reduction in cell surface FLT3 (FIGS. 10A and 10B, respectively) and >70% reduction in phospho-S6 (FIGS. 10C and 10D, respectively).

[5] = test system: phospho-S6 in MOLM-13 cells; assay: Phospho-S6 by flow cytometry; type: cell-based, human; conditions: 24 hours
Method: as §3
We next explored whether the synergistic activity of MPC-0767 and ATO was due to a more complete abrogation of FLT3-ITD oncogenic signaling. […] After this time cells were harvested for the assessment of cell surface FLT3 expression by flow cytometry. To additionally measure the effects of abrogating FLT3, we assessed phospho-ERK (pERK) and phospho-S6 (pS6), as these are two known downstream effectors.

NOMO1 (NOMO-1) cells = assay: CellTiter-Glo cell viability (single agent and combination); type: cell-based; conditions: NOMO1, 72 h
OCIAML3 cells = assay: CellTiter-Glo cell viability; type: cell-based; conditions: OCIAML3, 72 h
HL60 (HL-60) cells = assay: CellTiter-Glo cell viability (single agent and combination); type: cell-based; conditions: HL60, 72 h
[6] = test system: T-cell populations within MC38 tumors; assay: Effector/regulatory T-cell ratio in MC38 tumors; type: in vivo, mouse; conditions: 150 mg/kg QD×7
Method: To test if MPC-0767 may induce an anti-tumor immune response in addition to direct cytotoxic activity, down regulation of PD-Ll and the effector/regulatory T-cell ratio was measured in the same MC38 syngeneic model. On day 21, when the average tumor volume was 372 mm^3 in size, a second group of mice (n=6) was treated with 150 mg/kg MPC-0767 QD×7. One day post the last dose (day 28 post inoculation) tumors were harvested from the vehicle and 150 mg/kg MPC-0767 QD×7 group. Tumor infiltrating leukocytes (CD45^+, CD3^−) within the dissociated tumors were analyzed for PD-L1 expression by flow cytometry.

[7] = test system: murine MC38 colon cancer cell line; assay: MC38 syngeneic tumor model
Text: Tumor size (mm^3), P=0.01 (Student t-test) (A) and percent body weight change (B) are shown.
When the mean tumor volume reached 73 mm^3 in size, mice were randomized into 2 groups of 6. […] Tumor measurements (caliper) were taken on the indicated days. […] Student t-test was used to evaluate the statistical significance of the difference between these groups, P=0.01.

[8] = test system: MOLM-13 FLT3-ITD AML cell line; assay: Systemic survival xenograft study, MPC-0767 single agent; conditions: vs vehicle
Method: Statistical significance was calculated using Log Rank (Mantel-Cox) test.
Before tumor cell inoculation, NOD/SCID mice were pre-treated for 2 days with a daily intraperitoneal injection of 100 mg/kg cyclophosphamide to facilitate engraftment of the human MOLM-13 tumor cells. After the injection of cyclophosphamide, the animals were allowed to recover for 24 hours prior to inoculation with human MOLM-13 tumor cells. Each mouse was then inoculated with 1×10^7 MOLM-13 cells in 100 μL PBS via intravenous tail vein injection. Mice were next randomized into 3 groups of 6. […] Viability and body weight loss were monitored daily.

[9] = test system: MOLM-13 FLT3-ITD AML cell line; assay: Systemic survival xenograft study, MPC-0767 with venetoclax; conditions: MPC-0767 100-60 mg/kg QD×24, vs vehicle
Method: (§4) A systemic survival xenograft study was performed using the MOLM-13 FLT3-ITD harboring AML cell line.
Before tumor cell inoculation, NOD/SCID mice were pre-treated for 2 days with a daily intraperitoneal injection of 100 mg/kg cyclophosphamide to facilitate engraftment of the human MOLM-13 tumor cells. After the injection of cyclophosphamide, the animals were allowed to recover for 24 hours prior to inoculation with human MOLM-13 tumor cells. Each mouse was then inoculated with 1×10^7 MOLM-13 cells in 100 μL PBS via intravenous tail vein injection. Mice were next randomized into 4 groups of 6. […] Viability and body weight loss were monitored daily.

[10] = test system: OCIAML2 (OCI-AML-2) cells; assay: CellTiter-Glo cell viability (single agent and combination)
Method: To determine whether MPC-0767 is efficacious against non-FLT3-ITD AML cells, we tested a panel of FLT3-wild type (FLT3-WT) AML cell lines and primary AML blasts for sensitivity to MPC-0767. Cells were treated with MPC-0767 for 72 hours before determining cell viability using the CellTiter-Glo® assay. […] To test whether the combination of MPC-0767 was synergistic with ATO, we tested a panel of AML cell lines. The cell lines include those harboring FLT3-ITD (MOLM-13, MOLM-14 and MV-4-11) or FLT3 WT (ME-1, THP-1, OCI-AML-2, HL60, NOMO-1, TUR and ML-2).

[11] = test system: MOLM-13 FLT3-ITD AML cell line; assay: Systemic survival xenograft study, MPC-0767 with 5′azacitidine; conditions: single agents: MPC-0767 75 mg/kg p.o.; 5′azacitidine 2 mg/kg QD×4 i.p.; vs vehicle
Method: as §4
Before tumor cell inoculation, NOD/SCID mice were pre-treated for 2 days with a daily intraperitoneal injection of 100 mg/kg cyclophosphamide to facilitate engraftment of the human MOLM-13 tumor cells. After the injection of cyclophosphamide, the animals were allowed to recover for 24 hours prior to inoculation with human MOLM-13 tumor cells. Each mouse was then inoculated with 1×10^7 MOLM-13 cells in 100 μL PBS via intravenous tail vein injection. Mice were next randomized into 4 groups of 6 mice each. […] Viability and body weight loss were monitored daily.

Structure (SMILES): C[C@H](N)C(=O)O[C@@H](C)C(=O)N1CCC(CCn2c(Sc3cc4c(cc3Br)OCO4)nc3c(N)ncnc32)CC1 [MPC-0767]
- percentage of cells displaying markers of cell death (H1975 cells): increase
- percentage of viable cells (7-AAD negative and annexin V negative) (H1975 cells): decrease
- mutant EGFR on the cell surface [1]: decreased
- mutant EGFR on the cell surface [2]: decreased
- EC50 ([3]; Homo sapiens, MOLM-13-R-PKC412, 72 hours): 727 nM
- fold difference in EC50, midostaurin-resistant vs control cells ([3]; MOLM-13-R-PKC412 vs MOLM-13-LUC): less than 1.5 fold
- reduction in phospho-S6 [4]: > 70%
- reduction in phospho-S6 ([5]; MOLM-13, 1 μM): > 70%
- pS6 level ([5]; MOLM-13, MPC-0767 800 nM, ATO 625 nM or combination): reduced
- EC50 (NOMO1 (NOMO-1) cells; Homo sapiens, NOMO-1): 1450 nM
- MPC-0767 Sensitivity (NOMO1 (NOMO-1) cells): Resistant (EC50 values above 1 μM considered resistant)
- EC50 (OCIAML3 cells; Homo sapiens, OCI-AML-3): 1810 nM
- MPC-0767 Sensitivity (OCIAML3 cells): Resistant (EC50 values above 1 μM considered resistant)
- MPC-0767 Sensitivity (HL60 (HL-60) cells): Resistant (EC50 values above 1 μM considered resistant)
- EC50 (HL60 (HL-60) cells; Homo sapiens, HL-60): 1960 nM
- CD4:TREG ratio [6]: significant increase
- CD8:TREG ratio [6]: significant increase
- effect on body weight ([7]; oral 150 mg/kg QD×17): without significant effects on body weight
- tumor growth inhibition ([7]; oral 150 mg/kg QD×17, P=0.01): 69.5%
- increase in median survival ([8]; 75 mg/kg once a day): 1.5 days
- increase in median survival ([8]; 150 mg/kg once a day): 10 days
- increase in median survival [9]: 3.5 days
- EC50 ([10]; Homo sapiens, OCI-AML2, 72 h): 633 nM
- MPC-0767 Sensitivity ([10]; OCIAML2, 72 h): Sensitive (cell lines having EC50 values below 1 μM were considered to be sensitive)
- increase in median survival [11]: 5.5 days
